Test results published in BindingDB's records for doi:10.1021/jm00390a019 (1987).

Target: Gastrin/cholecystokinin type B receptor (Cavia porcellus)
Test: Half-maximal inhibition of binding of [125I]gastrin to guinea pig gastric glands

Q: How did the IC50 turn out when CC(C)CC(N)C(=O)N1CC(CC2N=C(c3ccccc3)c3ccccc3NC2=O)c2ccccc21 (stereo not given) was run?
A: Its IC50 is over 100 µM.

Q: For CN1C(=O)[C@@H](Cc2cn(C)c3ccccc23)N=C(c2ccccc2)c2ccccc21, which IC50 is on record?
A: The IC50 was 67 µM.

Q: How did the IC50 turn out when CC(C)C[C@H]1N=C(c2ccccc2)c2cc(Cl)ccc2NC1=O was run?
A: The IC50 was 38 µM.

Q: How did the IC50 turn out when CN1C(=O)[C@@H](Cc2c[nH]c3ccccc23)N=C(c2ccccc2)c2ccccc21 was run?
A: The IC50 was 21 µM.

Q: With O=C1Nc2ccc(Cl)cc2C(c2ccccc2)=N[C@@H]1COCc1ccccc1 as the compound, how does the IC50 read?
A: The IC50 was 13 µM.

Q: With CCN1C(=O)[C@@H](Cc2c[nH]c3ccccc23)N=C(c2ccccc2F)c2ccccc21 as the compound, how does the IC50 read?
A: Its IC50 is over 100 µM.

Q: For CC(C)CCN1C(=O)[C@@H](Cc2c[nH]c3ccccc23)N=C(c2ccccc2F)c2ccccc21, which IC50 is on record?
A: Its IC50 is 23 µM.

Q: For O=C1Nc2ccccc2C1C[C@H]1N=C(c2ccccc2)c2cc(Cl)ccc2NC1=O (stereo not given in full), which IC50 is on record?
A: The IC50 was over 100 µM.

Q: For O=C(O)CCN1C(=O)[C@@H](Cc2c[nH]c3ccccc23)N=C(c2ccccc2F)c2ccccc21, which IC50 is on record?
A: The IC50 was 5.8 µM.

Q: How did the IC50 turn out when O=C(O)CN1C(=O)[C@@H](Cc2c[nH]c3ccccc23)N=C(c2ccccc2F)c2ccccc21 [CCK antagonist synthetic 13] was run?
A: Its IC50 is 5 µM.
